According to US5306721A (priority 1990, dated 1994):
Read-outs that look alike come from different tables or passages of the source.

Tests used:
Vaccinia Lister [1] = assay: microbe, parasite or virus in culture; type: cell-based, vaccinia virus
Vaccinia Lister [2] = assay: microbe, parasite or virus in culture; type: cell-based; conditions: Orthopoxvirus vaccinia, in Gallus gallus, read-out: Plaque reduction in % of the virus control
adenovirus type 4 = assay: Antiviral activity against adenovirus type 4; type: cell-based
[3] = test system: Vesicular Stomatitis Indiana; assay: microbe, parasite or virus in culture; type: cell-based; conditions: in Gallus gallus, read-out: Plaque reduction in % of the virus control
[4] = test system: SE-specific IgM and IgG plaque forming cells (PFC); assay: Plaque test (HPT) for SE-specific IgM and IgG plaque forming cells, immunostimulatory action; type: in vivo, mouse (inbred CBA strain); conditions: 2.0 mg/kg daily over 5 days; control 100%; p<0.001
Procedure: The testing of immunostimulatory effects was also conducted on the mouse (inbred CBA strain) by detection through the plaque test for detecting SE (sheep erythrocyte) -specific immunoglobulin M (IgM) and immunoglobulin G (IgG) PFC (plaque forming cells), and by the rosette test.
2.1 Plaque Test for the Detection of SE-Specific IgM and IgG Plaque Forming Cells (PFC)
To check the immunostimulatory effects, the humoral immune response effect of compounds of Formula I was also investigated in mice of the inbred CBA strain and determined by means of the haemolysis plaque test (HPT). This technique permits the PFC, which produce IgM and IgG antibodies, to be determined quantitatively and separately. The immunization with sheep erythrocytes (SE) was carried out on day 0, the substance was administered orally in a daily dose of 1×10^-5 moles/kg of body weight; on days -1 to +3 relative to the determination of the IgM PFC, or on days +1 to +5 relative to the determination of the IgG PFC.
It becomes clear that a daily treatment extending over 5 days with the compound of Example 1, produces a highly significant increase in the SE-specific IgM and IgG PFC in the CBA mouse.

coxsackie A 9 virus = assay: Antiviral activity against coxsackie A 9 virus; type: cell-based
[5] = test system: SE-specific IgM and IgG plaque forming cells (PFC); assay: Immunorestorative efficacy: plaque test in cyclophosphamide (CY) damaged animals; type: in vivo, mouse (CBA inbred); conditions: for IgM PFC/10^6, CY + compound / IgG PFC/10^6 spleen cells, CY + compound: CY 150 mg/kg, oral 2 mg/kg
Procedure: The detection of immunorestorative effects after injury to the immune system was carried out also by the plaque test for detecting SE-specific IgM, and IgG PFC, and by the rosette test.
The determination of the immunorestorative activity of compounds of Formula I was conducted by first damaging the immune system of the experimental animals (CBA inbred mice) by chemotherapy with cyclophosphamide, carrageenan, iloprost, or by radiation. The test was carried the plaque test for detecting SE-specific IgM and IgG PFC, and the rosette test.
The examination of the immunorestorative effects of compounds of Example 1 was carried out by damaging the immune system of the experimental animals by cyclophosphamide (CY), and subsequent testing by sheep erythrocycle SE-specific plaque forming cells PFC.
The immune system of the animals was damaged by the injection of 150 mg/kg of body weight on day -1 before the immunization for both the test and the control groups. Immunization was carried out by the intraperitoneal injection of 4×10^8 SE in 0.2 ml of phosphate buffered saline (PBS) solution.
Each of the experimental animals of the test group received by oral administration 2 mg of the compound of Example 1 per kg of body weight on the days -2, -1, 0, +1 and +2. The SE-specific IgM and IgG PFC was detected by the plaque test.

Vaccinia Lister [6] = assay: microbe, parasite or virus in culture; type: cell-based; conditions: Orthopoxvirus vaccinia
Influenza A/WSN [7] = assay: Grading replication test on chicken embryo cells, influenza; type: cell-based; conditions: Influenza A virus
[8] = test system: Vesicular Stomatitis Indiana; assay: microbe, parasite or virus in culture; type: cell-based, vesicular stomatitis virus
Herpes simplex type 1 = assay: microbe, parasite or virus in culture; type: cell-based, herpes simplex virus
[9] = test system: Herpes simplex type 1 Kupka; assay: Grading replication test on RH cell line, herpes simplex type 1 Kupka; type: cell-based, herpes simplex virus; conditions: RH cells
Influenza A/WSN [10] = assay: Plaque reduction test, influenza; type: cell-based; conditions: Influenza A virus, primary chicken embryo cells, read-out: Plaque reduction in % of the virus control
[11] = Orthopoxvirus vaccinia, in Gallus gallus, read-out: Inhibition of virus yield
[12] = Orthopoxvirus vaccinia, in Gallus gallus, read-out: Lowering the virus yield
[13] = read-out: Inhibition of virus yield
[14] = read-out: Lowering the virus yield
[15] = Vesicular stomatitis virus, in Gallus gallus, read-out: Lowering the virus yield

`O=c1[nH]c2ccccc2c(=O)n1CCS` [Example 1, 3-(2-mercapto-ethyl)-quinazoline-2,4(1H,3H)-dione] showed an inhibition at 31.25 µM (Vaccinia Lister [1]; [11]) of 99%, an inhibition at 62.5 µM (Vaccinia Lister [1]; [11]) of 99.7% and an inhibition at 125 µM (Vaccinia Lister [1]; [11]) of 100%. It also gave an inhibition at 250 µM (Vaccinia Lister [1]; [11]) of over 100%, a log reduction at 31.25 µM (Vaccinia Lister [1]; [12]) of 1 and a log reduction at 62.5 µM (Vaccinia Lister [1]; [12]) of 2.5. The log reduction at 125 µM (Vaccinia Lister [1]; [12]) was 4, the log reduction at 250 µM (Vaccinia Lister [1]; [12]) was 5.67 and the therapeutic index (Vaccinia Lister [1]; ratio of maximum tolerated dose to minimum effective dose, vaccinia virus) was 8. The inhibition at 31.25 µM (Vaccinia Lister [2]) was 87%, the inhibition at 62.5 µM (Vaccinia Lister [2]) was 92% and the inhibition at 125 µM (Vaccinia Lister [2]) was 96%. The inhibition at 250 µM (Vaccinia Lister [2]) was 100%, the antiviral activity (adenovirus type 4) was “did not have antiviral activity” and the inhibition at 62.5 µM [3] was 0%. For the same molecule, the inhibition at 125 µM [3] was 15%, the inhibition at 250 µM [3] was 45% and the “number of IgG PFC relative to control” value [4] was 497%. For the same molecule, the “number of IgM PFC relative to control” value [4] was 352%, the antiviral activity (coxsackie A 9 virus) was “did not have antiviral activity” and the “number of IgG PFC in CY-suppressed animals” value ([5]; 6th and 7th days, p<0.05 and p<0.01) was “significantly increases the number of IgG PFC”. For the same molecule, the “recovery of the immunological reactivity (IgM PFC)” value ([5]; CY-damaged animals, significant on the 5th day, p<0.05) was “measurable recovery of the immunological reactivity”, the “IgM PFC/10^6, CY + compound” value ([5]; day of testing +3, CY only control 37.5 ± 27.1) was 31.7 ± 26.6 PFC/10^6 and the “IgM PFC/10^6, CY + compound” value ([5]; day of testing +4, CY only control 49.7 ± 32.9) was 59.8 ± 26.6 PFC/10^6. The “IgM PFC/10^6, CY + compound” value ([5]; day of testing +5, CY only control 56.8 ± 27.6, p<0.05) was 125.2 ± 32.7 PFC/10^6, the “IgG PFC/10^6 spleen cells, CY + compound” value ([5]; day of testing +6, CY only control 26.7 ± 12.1, p<0.05) was 88.3 ± 24.8 PFC/10^6 spleen cells and the “IgM PFC/10^6, CY + compound” value ([5]; day of testing +6, CY only control 74.7 ± 73.4) was 47.8 ± 32.7 PFC/10^6. The “IgG PFC/10^6 spleen cells, CY + compound” value ([5]; day of testing +7, CY only control 46.7 ± 16.3, p<0.01) was 128.3 ± 28.6 PFC/10^6 spleen cells, the “IgG PFC/10^6 spleen cells, CY + compound” value ([5]; day of testing +8, CY only control 63.3 ± 24.2) was 58.3 ± 43.6 PFC/10^6 spleen cells and the inhibition at 31.25 µM (Vaccinia Lister [6]; [13]) was over 100%. The inhibition at 62.5 µM (Vaccinia Lister [6]; [13]) was 100%, the inhibition at 125 µM (Vaccinia Lister [6]; [13]) was over 100% and the inhibition at 250 µM (Vaccinia Lister [6]; [13]) was over 100%. The log reduction at 31.25 µM (Vaccinia Lister [6]; [14]) was 3.5, the log reduction at 62.5 µM (Vaccinia Lister [6]; [14]) was 4 and the log reduction at 125 µM (Vaccinia Lister [6]; [14]) was over 4. It also gave a log reduction at 250 µM (Vaccinia Lister [6]; [14]) of over 4, an inhibition at 31.25 µM (Influenza A/WSN [7]; 31.25 μmoles/l, read-out: Inhibition of virus yield) of 99.5% and a log reduction at 31.25 µM (Influenza A/WSN [7]; 31.25 μmoles/l, read-out: Lowering the virus yield) of 2.5. The inhibition at 62.5 µM (Influenza A/WSN [7]; 62.5 μmoles/l, read-out: Inhibition of virus yield) was over 100%, the log reduction at 62.5 µM (Influenza A/WSN [7]; 62.5 μmoles/l, read-out: Lowering the virus yield) was 4.25 and the inhibition at 125 µM (Influenza A/WSN [7]; 125 μmoles/l, read-out: Inhibition of virus yield) was over 100%. It also gave a log reduction at 125 µM (Influenza A/WSN [7]; 125 μmoles/l, read-out: Lowering the virus yield) of 4.67, an inhibition at 250 µM (Influenza A/WSN [7]; 250 μmoles/l, read-out: Inhibition of virus yield) of over 100% and a log reduction at 250 µM (Influenza A/WSN [7]; 250 μmoles/l, read-out: Lowering the virus yield) of 6.23. For the same molecule, the “Inhibition of virus yield” value ([8]; 125 μmoles/l, chicken embryo cells, n.s. = not significant) was “n.s”, the inhibition at 250 µM ([8]; Vesicular stomatitis virus, in Gallus gallus, read-out: Inhibition of virus yield) was 99.9% and the log reduction at 125 µM [8, 15] was 0.5. For the same molecule, the log reduction at 250 µM [8, 15] was 3, the “Inhibition of virus yield” value (Herpes simplex type 1) was “n.s” and the log reduction at 125 µM (Herpes simplex type 1; Human alphaherpesvirus 1, in Gallus gallus, read-out: Lowering the virus yield) was 0.33. The inhibition at 250 µM (Herpes simplex type 1; Human alphaherpesvirus 1, 250 μmoles/l, chicken embryo cells, read-out: Inhibition of virus yield) was 99%, the log reduction at 250 µM (Herpes simplex type 1; Human alphaherpesvirus 1, 250 μmoles/l, chicken embryo cells, read-out: Lowering the virus yield) was 1 and the “Inhibition of virus yield” value ([9]; 62.5 μmoles/l, n.s. = not significant) was “n.s”. It also gave a log reduction at 62.5 µM ([9]; Human alphaherpesvirus 1, 62.5 μmoles/l, read-out: Lowering the virus yield) of 0.75, an inhibition at 125 µM ([9]; Human alphaherpesvirus 1, 125 μmoles/l, read-out: Inhibition of virus yield) of over 100% and a log reduction at 125 µM ([9]; Human alphaherpesvirus 1, 125 μmoles/l, read-out: Lowering the virus yield) of 5.5. It also gave an inhibition at 250 µM ([9]; Human alphaherpesvirus 1, 250 μmoles/l, read-out: Inhibition of virus yield) of over 100%, a log reduction at 250 µM ([9]; Human alphaherpesvirus 1, 250 μmoles/l, read-out: Lowering the virus yield) of 6 and an inhibition at 31.25 µM (Influenza A/WSN [10]; 31.25 μmoles/l) of 85%. The inhibition at 62.5 µM (Influenza A/WSN [10]; 62.5 μmoles/l) was 92%, the inhibition at 125 µM (Influenza A/WSN [10]; 125 μmoles/l) was 98% and the inhibition at 250 µM (Influenza A/WSN [10]; 250 μmoles/l) was 100%.
